{"source": "paper PMC11233931", "about": "“Remodeling tumor‐associated macrophage for anti‐cancer effects by rational design of irreversible inhibition of mitogen‐activated protein kinase‐activated protein kinase 2” (MedComm, 2024)", "test_in_all_cases": "Eurofins kinase selectivity profile against 380 other human recombinant kinases (Table S2)", "format_in_all_cases": "biochemical", "key": {"[1]": {"molecular_target": "T1, 380 human recombinant protein kinases (Homo sapiens, UniProt P36897)", "T1 construct": "purchased Eurofins (Celle Lévescault)", "T1 sequence (P36897 34-503)": "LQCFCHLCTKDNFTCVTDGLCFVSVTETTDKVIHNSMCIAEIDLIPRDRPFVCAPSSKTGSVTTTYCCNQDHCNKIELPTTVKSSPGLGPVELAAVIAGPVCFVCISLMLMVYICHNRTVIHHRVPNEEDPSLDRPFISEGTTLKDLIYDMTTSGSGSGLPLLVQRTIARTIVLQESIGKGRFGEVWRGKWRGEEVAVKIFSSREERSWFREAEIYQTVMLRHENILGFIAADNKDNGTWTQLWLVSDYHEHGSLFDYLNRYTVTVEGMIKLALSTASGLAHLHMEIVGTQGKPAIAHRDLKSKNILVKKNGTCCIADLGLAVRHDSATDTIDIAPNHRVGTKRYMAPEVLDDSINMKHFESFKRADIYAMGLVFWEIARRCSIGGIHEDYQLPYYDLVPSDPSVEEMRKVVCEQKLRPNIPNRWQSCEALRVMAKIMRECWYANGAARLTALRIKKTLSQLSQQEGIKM", "details": "TGFBR1(h), read-out: Inhibition rate (%)", "in_short": "(§1)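 Outsourced panel: 380 human recombinant kinases; inhibitor tested at various concentrations; purpose: MK2 selectivity check.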"}, "[2]": {"molecular_target": "T2, 380 human recombinant protein kinases (Homo sapiens, UniProt P51817)", "T2 construct": "purchased Eurofins (Celle Lévescault)", "T2 sequence (P51817 1-358)": "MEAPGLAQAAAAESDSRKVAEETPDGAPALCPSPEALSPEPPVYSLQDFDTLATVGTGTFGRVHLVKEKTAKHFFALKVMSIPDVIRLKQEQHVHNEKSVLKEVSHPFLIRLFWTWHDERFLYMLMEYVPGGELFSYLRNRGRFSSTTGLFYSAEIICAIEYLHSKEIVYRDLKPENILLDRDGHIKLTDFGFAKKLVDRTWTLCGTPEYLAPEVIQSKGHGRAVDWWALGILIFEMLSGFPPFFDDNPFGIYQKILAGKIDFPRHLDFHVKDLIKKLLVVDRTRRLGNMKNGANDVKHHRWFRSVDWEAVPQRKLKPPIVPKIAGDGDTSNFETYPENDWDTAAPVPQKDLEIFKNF", "details": "PrKX(h), read-out: Inhibition rate", "in_short": "as §1"}, "[3]": {"molecular_target": "T3, 380 human recombinant protein kinases (Homo sapiens, UniProt Q04771)", "T3 construct": "purchased Eurofins (Celle Lévescault)", "T3 sequence (Q04771 21-509)": "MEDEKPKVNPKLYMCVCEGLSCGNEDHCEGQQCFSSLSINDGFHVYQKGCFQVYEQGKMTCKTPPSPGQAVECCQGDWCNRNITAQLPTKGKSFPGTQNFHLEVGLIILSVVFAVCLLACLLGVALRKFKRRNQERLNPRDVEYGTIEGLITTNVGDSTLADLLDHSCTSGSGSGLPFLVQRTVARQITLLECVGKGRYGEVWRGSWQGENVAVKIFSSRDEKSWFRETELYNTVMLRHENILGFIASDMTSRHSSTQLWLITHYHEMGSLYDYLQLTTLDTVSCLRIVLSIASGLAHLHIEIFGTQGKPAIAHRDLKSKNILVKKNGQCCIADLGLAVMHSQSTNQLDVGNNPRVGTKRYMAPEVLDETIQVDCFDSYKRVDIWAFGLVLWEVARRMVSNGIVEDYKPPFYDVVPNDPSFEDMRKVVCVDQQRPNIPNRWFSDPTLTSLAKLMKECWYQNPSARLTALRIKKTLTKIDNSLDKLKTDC", "details": "ALK2(h), read-out: Inhibition rate", "in_short": "as §1"}, "[4]": {"molecular_target": "T4, 380 human recombinant protein kinases (Homo sapiens, UniProt Q08345)", "T4 construct": "purchased Eurofins (Celle Lévescault)", "T4 sequence (Q08345 19-913)": "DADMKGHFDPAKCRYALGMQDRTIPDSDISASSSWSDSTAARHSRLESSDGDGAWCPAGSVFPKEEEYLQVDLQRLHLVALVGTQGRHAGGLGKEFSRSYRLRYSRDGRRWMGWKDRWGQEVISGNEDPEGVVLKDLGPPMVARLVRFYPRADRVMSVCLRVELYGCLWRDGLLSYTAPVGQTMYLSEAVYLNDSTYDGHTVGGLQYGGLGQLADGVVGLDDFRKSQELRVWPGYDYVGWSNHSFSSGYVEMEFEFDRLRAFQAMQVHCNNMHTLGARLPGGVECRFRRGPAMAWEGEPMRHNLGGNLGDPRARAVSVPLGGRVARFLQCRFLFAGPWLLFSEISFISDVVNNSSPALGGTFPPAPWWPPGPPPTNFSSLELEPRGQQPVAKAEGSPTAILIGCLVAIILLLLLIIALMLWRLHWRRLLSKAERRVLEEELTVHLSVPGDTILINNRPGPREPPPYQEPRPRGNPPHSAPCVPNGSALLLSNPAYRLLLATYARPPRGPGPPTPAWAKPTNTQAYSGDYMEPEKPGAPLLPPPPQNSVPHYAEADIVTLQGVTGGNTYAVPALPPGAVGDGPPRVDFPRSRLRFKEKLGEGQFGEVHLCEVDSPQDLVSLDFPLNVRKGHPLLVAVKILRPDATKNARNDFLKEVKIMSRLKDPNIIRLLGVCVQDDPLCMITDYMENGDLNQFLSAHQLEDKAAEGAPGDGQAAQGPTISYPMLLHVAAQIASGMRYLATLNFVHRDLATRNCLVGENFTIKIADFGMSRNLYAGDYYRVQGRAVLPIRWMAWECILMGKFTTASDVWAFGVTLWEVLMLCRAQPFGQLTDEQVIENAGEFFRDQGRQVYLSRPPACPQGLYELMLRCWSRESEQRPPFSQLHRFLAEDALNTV", "details": "DDR1(h), read-out: Inhibition rate", "in_short": "as §1"}, "[5]": {"molecular_target": "T5, 380 human recombinant protein kinases (Homo sapiens, UniProt Q15119)", "T5 construct": "purchased Eurofins (Celle Lévescault)", "details": "PDHK2(h), read-out: Inhibition rate", "in_short": "as §1"}, "[6]": {"molecular_target": "T6, 380 human recombinant protein kinases (Homo sapiens, UniProt Q86V86)", "T6 construct": "purchased Eurofins (Celle Lévescault)", "details": "Pim-3(h), read-out: Inhibition rate", "in_short": "as §1"}}}
{"smiles": "C=CC(=O)Nc1cc(-c2cc(-c3cc4c([nH]3)CCNC4=O)ccn2)ccc1OC(F)(F)F", "note": "[compound 11]", "values": [{"measurement": "inhibition at 0.01 µM", "setting": "[1]; 10 nM", "value": -7, "unit": "%"}, {"measurement": "inhibition at 0.1 µM", "setting": "[1]; 100 nM", "value": -2, "unit": "%"}, {"measurement": "inhibition at 1 µM", "setting": "[1]; 1000 nM", "value": -4, "unit": "%"}, {"measurement": "inhibition at 0.01 µM", "setting": "[2]; 10 nM", "value": 3, "unit": "%"}, {"measurement": "inhibition at 0.1 µM", "setting": "[2]; 100 nM", "value": 12, "unit": "%"}, {"measurement": "inhibition at 1 µM", "setting": "[2]; 1000 nM", "value": 11, "unit": "%"}, {"measurement": "inhibition at 0.01 µM", "setting": "[3]; 10 nM", "value": -4, "unit": "%"}, {"measurement": "inhibition at 0.1 µM", "setting": "[3]; 100 nM", "value": -6, "unit": "%"}, {"measurement": "inhibition at 1 µM", "setting": "[3]; 1000 nM", "value": 0, "unit": "%"}, {"measurement": "inhibition at 0.01 µM", "setting": "[4]; 10 nM", "value": 0, "unit": "%"}, {"measurement": "inhibition at 0.1 µM", "setting": "[4]; 100 nM", "value": -1, "unit": "%"}, {"measurement": "inhibition at 1 µM", "setting": "[4]; 1000 nM", "value": -7, "unit": "%"}, {"measurement": "inhibition at 0.01 µM", "setting": "[5]; 10 nM", "value": -8, "unit": "%"}, {"measurement": "inhibition at 0.1 µM", "setting": "[5]; 100 nM", "value": 6, "unit": "%"}, {"measurement": "inhibition at 1 µM", "setting": "[5]; 1000 nM", "value": 0, "unit": "%"}, {"measurement": "inhibition at 0.01 µM", "setting": "[6]; 10 nM", "value": -1, "unit": "%"}, {"measurement": "inhibition at 0.1 µM", "setting": "[6]; 100 nM", "value": 16, "unit": "%"}, {"measurement": "inhibition at 1 µM", "setting": "[6]; 1000 nM", "value": 59, "unit": "%"}]}
